# Test results taken from US8486968B2, “Compounds” (Boehringer Ingelheim International GmbH, priority 2010, dated 2013).
# Tests used:
# mPGES-1 [1] = molecular target: T1, mPGES-1 (Homo sapiens, UniProt O14684); assay: A549 cell-based assay (PGE2 formation, IL-1β stimulated, 50% human serum); design: host or cells: A549 cells
# T1 sequence (O14684 1-152): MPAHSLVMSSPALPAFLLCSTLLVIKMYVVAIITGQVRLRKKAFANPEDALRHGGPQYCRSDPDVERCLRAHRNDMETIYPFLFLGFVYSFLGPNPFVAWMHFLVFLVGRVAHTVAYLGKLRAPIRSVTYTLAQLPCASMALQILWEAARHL
# Protocol: Although the enzymatic assay is a high throughput assay the disadvantage is that it uses a recombinant protein which is not in its natural environment. Accordingly a cellular assay was established in which a cell line of human origin (A549) expressing the mPGES-1 protein was used. In addition in order to mimic the situation in humans in which compounds can be bound to plasma proteins 50% human serum is added in the assay. By having the combination of testing mPGES-1 in a cellular environment and the presence of 50% human serum this assay has a higher relevance to judge the therapeutic potential of a mPGES-inhibitor than the pure enzyme assay.
# A549 cells (ATCC: CCL-185) are grown to about 90% confluence in F-12K Nutrient Mixture (Kaighn's Mod. Gibco) containing 10% FBS in a humified incubator at 37° C. and 5% CO2. Cells were detached using Trypsin-EDTA. A549 cells were seeded in a 384-well collagene plate at a density of 7000 cells/well (50 μl) in F-12 medium containing 1% Penicillin-Streptomycin and 50% human serum. The cells were allowed to attach for 3-4 h. After that the cells were incubated for 20-24 h in F-12k medium supplemented with 50% human serum, 1% Penicillin-Streptomycin and containing IL-1β at a final concentration of 5 ng/ml as well as 10 nM arachidonic acid in the presence of a vehicle or a test compound. The total volume is 100 μl.
# Concentrations of PGE2 in the cell free medium (10 μl) were measured using a commercially available HTRF kit from Cisbio (as described above). The PGE2 formation in the absence of test compound was taken as 100%.
# IC50 values were derived from at 6-8 point titrations using conventional software.
# mPGES-1 [2] = molecular target: T1, mPGES-1; assay: mPGES-1 enzyme assay (HTRF detection of PGE2); type: biochemical; design: made in house; host or cells: Rosetta E. coli (membrane/microsome fraction)
# Protocol: Microsomes from Rosetta E. coli bacteria expressing recombinant human mPGES-1 can be derived as described below:
# Inoculate 5 ml LB with Ampicilin (50 μg/ml) and Chloramphenicol (34 μg/ml) with bacteria from freeze culture. Incubate 8 h at 37° C. with 200 rpm. Thereafter, inoculate 500-1000 ml LB containing Amp and Chloro with the 5 ml on culture and grow to OD640 of 0.8-1.0. Chill the culture to +4° C. before induction. Induce the culture with IPTG at a final concentration of 400 μM. Express the protein at room temp 18-23° C. with 200 rpm shaking over night.
# The following steps can be performed on the following day: • 1. Spin down the cells in 250 ml centrifuge flasks for 15 min at 7000 rpm (Beckmann Coulte Avanti J-E centrifuge) • 2. Dissolve the pellet from 250 ml culture in 12.5 ml homogenization buffer • 3. (15 mM Tris-HCL pH8, 1 mM EDTA pH8, […], 2.5 mM GSH, 1 Tablet Protease inhibitor per 50 ml buffer) • 4. Disintegrate the cells by sonication, 5×10 seconds at 48% amplitude of a 750 W sonifier • 5. Add 2.5 ml MgCl2 (100 mM) and DNase 12.5 μl (0.8 mg/ml) and incubate on ice for 30 min • 6. Spin down the bacteria debris and save the supernatant, 7000 rpm for 15 min • 7. Isolate the protein containing membranes in the supernatant by ultracentrifugation 120000×g for 2 hour at 4° C. (Sorvall T880 rotor). • 8. Discard the supernatant and dissolve the pellet in 20 mM Potassium phosphate buffer pH 7.4 (KH2PO4 and K2HPO4) buffer by sonication (5×10 s, 30% of a 50 W sonifier) and aliquot the enzyme and store aliquots at −80° C.
# Before each experiment is performed an aliquot of the enzyme is thawed and it can then be dissolved in 0.1 M Potassium phosphate buffer pH7.4 (KH2PO4 and K2HPO4) buffer containing 2.5 mM GSH.
# The aim of this assay is the determine the affinity of a test compound for the mPGES-1 enzyme.
# 47 μl of recombinant human mPGES-1 (˜0.5 μg protein/well) containing microsomal suspension in a buffer containing GSH, (2.5 mmol/L L-Glutathione reduced, dissolved in 0.1 mol/L Phosphat Buffer pH 7.4) is dispensed in a 384-well plate and thereafter 1 μl of the test compound(s) is/are added and incubated for 25 minutes at room temperature. The enzyme reaction is started by the addition of 2 μl PGH2 (final conc. 2 μM) dissolved in water-free Diglyme. After 60 seconds the reaction is terminated by addition of a stop solution containing FeCl2 (10 μL 0.074 mol/l FeCl2). The samples are diluted between 1:25 in PBS (Phosphate Buffered Saline). 10 μl of the diluted samples are transferred to 384-well low volume plate. In order to quantify the amount of PGE2 that has been formed, a homogenous time resolved fluorescent (HTRF) detecting of PGE2 has been performed using a commercially available kit from Cisbio according to the manufactures recommendation. This HTRF-based assay has been described in detail (see: Goedken et al., J Biomol Screen, 2008, 13(7), 619-625). Briefly, the diluted samples are mixed with 5 μl PGE2-d2 conjungate and 5 μl anti-PGE2 cryptate conjungate. After an incubation period of the plates over night, the fluorescence is measured by the use of an appropriate microplate reader.
# The fluorescence of Europium cryptate (maxex=307 nm, maxem=620 nm) and d2-PGE2 (maxex=620 nm, maxem=665 nm) are measured.
# The extent of the specific HTRF is measured as a ratio of the emission intensity at 665 nm vs. that at 620 nm at an excitation puls of 320 nm. The quantification plate contains also wells with different concentrations of PGE2 as calibration curve for the calculation of the PGE2 concentrations from the HTRF ratio values.
# From all mPGES enzyme assay the background is subtracted and the IC50 is calculated over a nonlinear regression with conventional software.
# [3] = Table C comparison of enzym and cell IC50, A549 cells, read-out: Cell IC50
# [4] = Table C comparison of enzym and cell IC50, read-out: Enzym IC50
# [5] = A549 cells, IL-1β 5 ng/ml, 20-24 h, Table B, read-out: mPGES-1 inhibitory effect, IC50, cell assay
# [6] = recombinant human mPGES-1 microsomes, PGH2 2 μM, Table A, read-out: mPGES-1 inhibitory effect, IC50, enzyme assay
Structure (SMILES),IC50 (mPGES-1 [1]; [3]) [nM],IC50 (mPGES-1 [2]; [4]) [nM],IC50 (mPGES-1 [1]; [5]) [nM],IC50 (mPGES-1 [2]; [6]) [nM]
Cn1c(Nc2c(F)cccc2Cl)nc2cc(C(=O)Nc3ccc(Br)cc3)c(OCC(F)F)nc21 [reference compound],72,2,,
O=C(N[C@H]1CC[C@H](C(F)(F)F)CC1)c1cc2nc(Nc3c(Cl)cc(F)cc3Cl)[nH]c2nc1OCC(F)(F)F [reference compound],43,2,,
COCCN(C)c1nc2c(cc1C(=O)N[C@H]1CC[C@H](C(F)(F)F)CC1)nc(Nc1cc(CNC(=O)C3(C(F)(F)F)CC3)ccc1Cl)n2C [Example 6],,,,9
Cn1c(Nc2c(Cl)ccc(CNC(=O)C(C)(C)C)c2Cl)nc2cc(C(=O)NCC(F)(F)C(F)(F)F)c(N3CCC(C(F)(F)F)CC3)nc21 [Example 34],,,10,2
Cn1c(Nc2c(Cl)ccc(CNC(=O)C(C)(C)C)c2Cl)nc2cc(C(=O)NC(Cc3ccccc3)C(F)(F)F)c(N3CCC(C(F)(F)F)CC3)nc21 (stereo not drawn) [Example 39],,,25,
Cn1c(Nc2c(Cl)ccc(CNC(=O)C(C)(C)C(F)(F)F)c2Cl)nc2cc(C(=O)N[C@H]3CC[C@H](C(F)(F)F)CC3)c(N3CC[C@@H](F)C3)nc21 [Example 19],,,6,4
Cn1c(Nc2c(Cl)ccc(CNC(=O)C(C)(C)C)c2Cl)nc2cc(C(=O)NCC(F)(F)F)c(N3CCC(C(F)(F)F)CC3)nc21 [Example 32],,,12,4
CC(C)(C)C(=O)NCc1ccc(Cl)c(Nc2nc3cc(C(=O)N[C@H]4CC[C@H](C(F)(F)F)CC4)c(N4CC[C@H](F)C4)nc3[nH]2)c1Cl [Example 8],,,11,2
CN(C)C(=O)Cn1c(Nc2c(Cl)ccc(CNC(=O)C(C)(C)C)c2Cl)nc2cc(C(=O)N[C@H]3CC[C@H](C(F)(F)F)CC3)c(N3CCC(C(F)(F)F)CC3)nc21 [Example 29],,,39,10
Cn1c(Nc2c(Cl)ccc(CNC(=O)C(C)(C)C)c2Cl)nc2cc(C(=O)NC(c3ccccn3)C(F)(F)F)c(N3CCC(C(F)(F)F)CC3)nc21 (stereo not drawn) [Example 42],,,4,2

# Other lines, results leading:
IC50 (mPGES-1 [1]; [3]) [nM],IC50 (mPGES-1 [2]; [4]) [nM],IC50 (mPGES-1 [1]; [5]) [nM],IC50 (mPGES-1 [2]; [6]) [nM],Structure (SMILES)
,,6,2,Cn1c(Nc2c(Cl)ccc(CNC(=O)C(C)(C)C)c2Cl)nc2cc(C(=O)N[C@H](c3ccccc3)C(F)(F)F)c(N3CCC(C(F)(F)F)CC3)nc21 [Example 36]
,,47,10,CN(CC(F)F)c1nc2[nH]c(Nc3c(Cl)ccc(CNC(=O)C(C)(C)C)c3Cl)nc2cc1C(=O)NCC(F)F [Example 11]
,,5,1,Cn1c(Nc2c(Cl)ccc(CNC(=O)C(C)(C)C)c2Cl)nc2cc(C(=O)N[C@H]3CC[C@H](C(F)(F)F)CC3)c(N(CC3CC3)C3CC3)nc21 [Example 23]
,,2,8,"Cn1c(Nc2c(Cl)ccc(CNC(=O)C(C)(C)C)c2Cl)nc2cc(C(=O)N[C@H]3CC[C@H](C(F)(F)F)CC3)c(N3CCC(F)CC3)nc21 [Example 2, N-(trans-4-Trifluoromethyl-cyclohexyl)-2-{2,6-dichloro-3-[(2,2-dimethyl-propionylamino)-methyl]-phenylamino}-5-[-fluoro-piperidinyl]-3-methyl-3H-imidazo[4,5-b]pyridine-6-carboxamide]"
,,13,3,Cn1c(Nc2c(Cl)ccc(CNC(=O)C(C)(C)C)c2Cl)nc2cc(C(=O)Nc3cccc(OC(F)(F)F)c3)c(N3CCC(C(F)(F)F)CC3)nc21 [Example 40]
,,5,1,"Cn1c(Nc2c(Cl)ccc(CNC(=O)C(C)(C)C)c2Cl)nc2cc(C(=O)Nc3ccc(OC(F)(F)F)cc3)c(N3CCC(C(F)(F)F)CC3)nc21 [Example 24, N-(4-Trifluoromethoxyphenyl)-2-{2,6-dichloro-3-[(2,2-dimethyl-propionylamino)-methyl]-phenylamino}-5-[4-trifluoromethyl-piperidinyl]-3-methyl-3H-imidazo[4,5-b]pyridine-6-carboxamide]"
,,15,3,CN(CC1(C)COC1)c1nc2c(cc1C(=O)N[C@H]1CC[C@H](C(F)(F)F)CC1)nc(Nc1c(Cl)ccc(CNC(=O)C(C)(C)C)c1Cl)n2C [Example 22]
,,2,2,Cn1c(Nc2c(Cl)ccc(CNC(=O)C(C)(C)C)c2Cl)nc2cc(C(=O)N[C@H]3CC[C@H](C(F)(F)F)CC3)c(N3CC[C@@H](F)C3)nc21 [Example 18]
,,8,2,Cn1c(Nc2c(Cl)ccc(CNC(=O)C(C)(C)C)c2Cl)nc2cc(C(=O)NCCCC(F)(F)F)c(N3CCC(C(F)(F)F)CC3)nc21 [Example 33]
,,7,4,CC(C)(C)C(=O)NCc1ccc(Cl)c(Nc2nc3cc(C(=O)N[C@H]4CC[C@H](C(F)(F)F)CC4)c(N4CCOCC4)nc3n2CC(F)F)c1Cl [Example 25]
,,11,4,CC(C)(C)C(=O)NCc1ccc(Cl)c(Nc2nc3cc(C(=O)N[C@H]4CC[C@H](C(F)(F)F)CC4)c(N4CC[C@@H](F)C4)nc3[nH]2)c1Cl [Example 7]
161,4,,,Cn1c(Nc2c(Cl)cc(F)cc2Cl)nc2cc(C(=O)N[C@H]3CC[C@H](C(F)(F)F)CC3)c(OCC(F)F)nc21 [reference compound]
,,8,3,Cn1c(Nc2c(Cl)ccc(CNC(=O)C(C)(C)C)c2Cl)nc2cc(C(=O)NC3(c4ccc(F)cc4)CC3)c(N3CCC(C(F)(F)F)CC3)nc21 [Example 37]
,,8,1,CN(CC(F)F)c1nc2[nH]c(Nc3c(Cl)ccc(CNC(=O)C(C)(C)C)c3Cl)nc2cc1C(=O)NC1CCC(F)(F)CC1 [Example 10]
,,12,4,CC(NC(=O)c1cc2nc(Nc3c(Cl)ccc(CNC(=O)C(C)(C)C)c3Cl)n(C)c2nc1N1CCC(C(F)(F)F)CC1)c1cccs1 (stereo not drawn) [Example 45]
